Measurements taken from patent US20240140931A1, “TRICYCLIC COMPOUNDS AND USES THEREOF” (HUTCHMED LIMITED, priority 2021, published 2024).
pIC50: −log10 of the molar value.

Columns and labels:
[1] = biological target: Human full-length SHP2 recombinant protein (Homo sapiens (Human), UniProt Q06124); experiment: Assay of full-length SHP2 phosphatase activity; assay type: biochemical; conditions: DiFMUP substrate, with activating peptide
In short: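 Full-length human SHP2 preincubated 30 min at RT with activating peptide and compound (1% DMSO final). DiFMUP substrate added, reaction 60 min at 25 °C in dark. Fluorescence at ex 355/em 460 nm; IC50 from 4-parameter fit against enzyme-free and vehicle controls.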

Miapaca2 3D spheroids = experiment: Assay of cell proliferation on Miapaca2 3D spheroids; assay type: cell-based; conditions: CellTiter-Glo 3D, 5 days treatment
Experimental: Example 4 Assay of Cell Proliferation on Miapaca2 3D Spheroids
1. Reagents and Materials • CellTiter-Glo® 3D Cell Viability Assay Kit: Promega, Cat #G9683; • CellCarrier Spheroid ULA 96-well plate: Corning, Cat #4515; • Instrument: Envision, Perkinelmer; • Cell line: Miapaca2, ATCC, Cat #CRL-1420.
2. Preparation of Reaction Solutions • The test compound was dissolved in DMSO and diluted with DMSO to 3000.0 μM, and the compound was further 3-fold diluted with DMSO to: 1000.0, 333.3, 111.1, 37.0, 12.3, 4.1, and 1.4 μM. Then 2 μL of the compound at different dilution concentrations was added to 198 μL of a 1640 medium to prepare a 10× test compound, wherein DMSO was at the concentration of 1% (DMSO was at the final concentration of 0.1%).
3. Experimental Methods • Day0: Digest cells and count cell numbers. Miapaca2 cells were inoculated into a spheroid ULA 96-well plate at a density of 300 cells/well at 100 μL/well and cultured in a cell incubator at 5% CO2 and 37° C. • Day2: The cell spheroids formed at day2. Add 10 μL of 10× test compounds to the 96-well plate. To the cell positive control well was added 10 μL of 1% DMSO 1640 medium. Incubate the cell spheroids in a cell incubator at 5% CO2 and 37° C. for additional 5 days. • Cell viability assay: Add 50 μL of CellTiter-Glo reagent to each well, place the plate in a microplate shaker, and lysis under shaking at 900 rpm at room temperature for 5 minutes. Then incubate the plate at room temperature in the dark for 30 minutes. • The luminescene of each well was detected on Envision2104.
Cell Survial %=(Lum(d7 treatment)−Lum(d2 cell))/(Lum(d7 cell)−Lum(d2 cell))×100
Wherein: • Lum(d7 treatment) refers to the luminescene of the test compound treated cells on day7; • Lum(d2 cell) refers to the luminescene of the 0.1% DMSO treated Miapaca2 cells on day2; • Lum(d7 cell) refers to the luminescene of the 0.1% DMSO treated Miapaca2 cells on day7. • IC50 values were calculated following formula 205: y=A+((B−A)/(1+((C/X)^D))), by using the XL-Fit 5.0 software.

[2] = tested on: pERK1/2 (Thr202/Tyr204) in Miapaca2 cells; experiment: Assay of intracellular pERK1/2 (Thr202/Tyr204) phosphorylation; assay type: cell-based; conditions: pERK1/2 (Thr202/Tyr204) HTRF
In short: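 Miapaca2 cells treated 2 h at 37 °C with compound (3-fold series; final DMSO 0.5%), then lysed 1 h. pERK1/2 (Thr202/Tyr204) detected by HTRF (665/615 nm ratio) after 2 h at 25 °C; normalized to cell-free lysis buffer and DMSO-treated cell controls; IC50 by four-parameter fit.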

[3] = Homo sapiens, MIA PaCa-2, 120 h

Row | SMILES | pIC50 [1] | pIC50 (Miapaca2 3D spheroids) | pIC50 ([2]; 2 hours) | pIC50 (Miapaca2 3D spheroids; [3]) | pIC50 ([2]; Homo sapiens, MIA PaCa-2, 2 h)
1 | C#Cc1ccc2c(c1)[C@@H](N)C1(CCN(c3cc(=O)n(-c4ccc(F)c(OC)c4Cl)c(C)n3)CC1)C2 (atropisomer, axis not shown) [Compound 161] | 9.00 | 8.10 | 7.89 | – | –
2 | COCC#Cc1ccc2c(c1)[C@@H](N)C1(CCN(c3cc(=O)n(-c4ccc(F)c(OC)c4Cl)c(C)n3)CC1)C2 (atropisomer, axis not shown) [Compound 163] | 9.00 | – | 7.85 | 7.70 | –
3 | CNC(=O)C#Cc1ccc2c(c1)[C@@H](N)C1(CCN(c3cc(=O)n(-c4cccc(OC)c4Cl)c(C)n3)CC1)C2 (atropisomer, axis not shown) [Compound 182] | 9.00 | – | 7.64 | 7.74 | –
4 | C#Cc1ccc2c(c1)[C@@H](N)C1(CCN(c3cc(=O)n(-c4ccc(C#N)c(OC)c4Cl)c(C)n3)CC1)C2 (atropisomer, axis not shown) [Compound 191] | 9.00 | 7.24 | 7.68 | – | –
5 | C#Cc1ccc2c(c1)[C@@H](N)C1(CCN(c3cc(=O)n(-c4ccc(C#N)c(Cl)c4Cl)c(C)n3)CC1)C2 (atropisomer, axis not shown) [Compound 193] | 9.00 | 7.05 | 7.62 | – | –
6 | CNC(=O)C#Cc1ccc2c(c1)[C@@H](N)C1(CCN(c3cc(=O)n(-c4ccc(F)c(OC)c4Cl)c(C)n3)CC1)C2 (atropisomer, axis not shown) [Compound 201] | 9.00 | – | 8.22 | 7.74 | –
7 | CC#Cc1ccc2c(c1)[C@@H](N)C1(CCN(c3cc(=O)n(-c4ccc(F)c(OC)c4Cl)c(C)n3)CC1)C2 (atropisomer, axis not shown) [Compound 207] | 8.70 | – | 8.05 | 7.46 | –
8 | C#Cc1cc(F)c2c(c1)[C@@H](N)C1(CCN(c3cc(=O)n(-c4cccc(Cl)c4Cl)c(C)n3)CC1)C2 [Compound 135] | 8.30 | – | – | 7.02 | 7.25
9 | COCC#Cc1ccc2c(c1)[C@@H](N)C1(CCN(c3ncc(Sc4ccnc(N)c4Cl)c4nncn34)CC1)C2 [Compound 147] | 8.52 | – | – | 7.32 | 8.00
10 | COCC#Cc1ccc2c(c1)[C@@H](N)C1(CCN(c3ncc(Sc4ccnc(N)c4Cl)c4ncnn34)CC1)C2 [Compound 148] | 8.40 | – | – | 7.33 | 7.89
11 | CCNC(=O)C#Cc1ccc2c(c1)[C@@H](N)C1(CCN(c3cnc(Sc4ccnc(N)c4Cl)cn3)CC1)C2 [Compound 155] | 9.00 | – | – | 9.05 | 8.70
12 | C#Cc1ccc2c(c1)[C@@H](N)C1(CCN(c3ncc(Sc4ccnc(N)c4Cl)n4nccc34)CC1)C2 [Compound 156] | 8.22 | – | – | 7.51 | 8.00
13 | C#Cc1ccc2c(c1)[C@@H](N)C1(CCN(c3cc(=O)n(-c4ccc(F)c(OC)c4Cl)c(C)n3)CC1)C2 [Compound 157] | 8.70 | 7.55 | 7.60 | – | –
14 | COCC#Cc1ccc2c(c1)[C@@H](N)C1(CCN(c3cc(=O)n(-c4ccc(F)c(OC)c4Cl)c(C)n3)CC1)C2 [Compound 158] | 8.52 | 7.49 | 7.51 | – | –
15 | COCC#Cc1ccc2c(c1)[C@@H](N)C1(CCN(c3cc(=O)n(-c4ccc(C#N)c(O)c4F)c(C)n3)CC1)C2 [Compound 186] | 7.38 | – | – | – | < 6.00
16 | C#Cc1ccc2c(c1)[C@@H](N)C1(CCN(c3cc(=O)n(-c4ccc(C#N)c(F)c4Cl)c(C)n3)CC1)C2 [Compound 198] | 7.80 | – | – | – | 6.72

Results, then the compound that gave them:

Row | pIC50 [1] | pIC50 (Miapaca2 3D spheroids) | pIC50 ([2]; 2 hours) | pIC50 (Miapaca2 3D spheroids; [3]) | pIC50 ([2]; Homo sapiens, MIA PaCa-2, 2 h) | SMILES
17 | 9.00 | 7.42 | 7.72 | – | – | CNC(=O)C#Cc1ccc2c(c1)[C@@H](N)C1(CCN(c3cc(=O)n(-c4ccc(F)c(F)c4Cl)c(C)n3)CC1)C2 (atropisomer, axis not shown) [Compound 209]
18 | 9.00 | – | 7.31 | 7.21 | – | CC#Cc1ccc2c(c1)[C@@H](N)C1(CCN(c3cc(=O)n(-c4ccc(F)c(F)c4Cl)c(C)n3)CC1)C2 (atropisomer, axis not shown) [Compound 217]
19 | 9.00 | – | 7.82 | 7.20 | – | CC#Cc1ccc2c(c1)[C@@H](N)C1(CCN(c3cc(=O)n(-c4ccc(F)c(Cl)c4Cl)c(C)n3)CC1)C2 (atropisomer, axis not shown) [Compound 221]
20 | 7.77 | – | – | – | 6.79 | C#Cc1ccc2c(c1)[C@@H](N)C1(CCN(c3cc(=O)n(-c4ccc(OC)c(Cl)c4Cl)c(C)n3)CC1)C2 [Compound 211]
21 | 7.17 | – | – | – | 6.35 | C#Cc1ccc2c(c1)[C@@H](N)C1(CCN(c3ncc(Sc4ccnc(N)n4)c(N)n3)CC1)C2 [Compound 213]
22 | 8.40 | – | 7.00 | – | – | CC#Cc1ccc2c(c1)[C@@H](N)C1(CCN(c3cc(=O)n(-c4ccc(F)c(F)c4Cl)c(C)n3)CC1)C2 [Compound 214]
23 | 7.60 | – | – | – | 6.78 | CC#Cc1ccc2c(c1)[C@@H](N)C1(CCN(c3ncc(Sc4ccnc(N)c4Cl)c(N)n3)CC1)C2 [Compound 215]
24 | 8.40 | – | – | – | 7.64 | CNC(=O)C#Cc1cc2c(cc1F)CC1(CCN(c3nc(N)c(Sc4ccnc(N)c4Cl)nc3Cl)CC1)[C@@H]2N [Compound 223]
25 | 8.05 | – | – | – | 7.70 | CCNC(=O)C#Cc1ccc2c(c1)[C@@H](N)C1(CCN(c3nc(N)c(Sc4ccnc(N)c4Cl)nc3Cl)CC1)C2 [Compound 224]
26 | 6.69 | – | – | – | < 6.00 | C#Cc1cc2c(cc1F)CC1(CCN(c3cc(=O)n(-c4cccc(Cl)c4Cl)c(C)n3)CC1)[C@@H]2N [Compound 228]
27 | 8.55 | – | – | – | 6.82 | CC#Cc1ccc2c(c1)[C@@H](N)C1(CCN(c3cnc(Sc4ccnc(N)c4Cl)nn3)CC1)C2 [Compound 234]
28 | 6.88 | – | – | – | 6.16 | CNC(=O)C#Cc1ccc2c(c1)[C@@H](N)C1(CCN(c3ncc(Sc4cccnc4C(F)(F)F)nn3)CC1)C2 [Compound 246]
29 | 8.00 | – | – | – | 6.73 | CCNC(=O)C#Cc1ccc2c(c1)[C@@H](N)C1(CCN(c3ncc(N4CCCc5ncccc54)nc3C)CC1)C2 [Compound 258]
30 | 8.05 | – | – | – | 6.69 | CNC(=O)C#Cc1ccc2c(c1)[C@@H](N)C1(CCN(c3ncc(N4CCCc5ncccc54)nc3C)CC1)C2 [Compound 263]
31 | – | – | 7.20 | 7.77 | – | C#Cc1ccc2c(c1)[C@@H](N)C1(CCN(c3cc(=O)n(-c4cccc(C#N)c4Cl)c(C)n3)CC1)C2 [Compound 268]
32 | 7.77 | – | – | – | 6.60 | CCNC(=O)C#Cc1ccc2c(c1)[C@@H](N)C1(CCN(c3cnc(Sc4ccnc(N)c4Cl)c(C#N)n3)CC1)C2 [Compound 272]
33 | 7.07 | – | – | – | 6.02 | C#Cc1ccc2c(c1)[C@@H](N)C1(CCN(c3ncc(-c4cn(C)c5ncccc45)c(=O)n3C)CC1)C2 [Compound 285]
34 | 7.92 | – | – | – | 6.85 | C#Cc1ccc2c(c1)[C@@H](N)C1(CCN(c3ncc(N4CCCc5ncccc54)c(=O)n3C)CC1)C2 [Compound 287]
35 | 9.30 | – | – | – | 8.05 | Nc1nccc(Sc2cnc(N3CCC4(CC3)Cc3ccc(C#CC(=O)N5CCC5)cc3[C@H]4N)cn2)c1Cl [Compound 303]
